The text below walks through data of patent publication US4399065A, “D-Phenylalanyl-L-prolyl-L-arginine aldehyde sulfate and process for the preparation thereof” (Patentbureau Danubia, priority 1981, dated 1983).

“And” between values parts separate entries of the source, which are not always exact repeats. Identical values can stand only once.

Data set [1] deals with thrombin time in the whole blood. Nature of the data set: In vivo trial, rabbit: dose required to prolong thrombin time in the whole blood 1.5 to 2.5 fold. The following applies: thrombin time in whole blood prolonged 1.5 to 2.5 fold. The text has this: (§1) ^a The therapeutic effect is characterized by the dose required to […]
Data set [2] deals with T1, U.S. Standard Human Thrombin (Homo sapiens, UniProt P00734). The experiment in a line: Antithrombin activity (thrombin time) of peptide solutions stored in isotonic salt solution, fibrinogen system. The following applies: for Relative activity after 0 days: 10 mg/ml, 100 = fivefold relative thrombin time at 3.5 × 10^-7 M. As for the experimental part:
In the course of our tests the peptides were dissolved in concentrations of 10 mg/ml, stored at 5° C., and the ensuing change in antithrombin activity registered for 180 days. The potency was assayed in a system containing the following components:
0.2 ml of 0.5 percent bovine fibrinogen in a 0.9 percent solution of sodium chloride,
0.1 ml of tris(hydroxymethyl)-amino-methane hydrochloride--hydrochloric acid buffer (pH 7.2) containing the peptide solution
0.1 ml of U.S. Standard Human Thrombin (NIH, Bethesda, Md., USA), 10 Unit/ml solution.
The activity of the tripeptide aldehyde solution was arbitrarily set up as 100, if the reaction mixture induced a fivefold relative thrombin time at a final concentration of 3.5×10^-7 M (in the case of the tripeptide aldehyde sulfate at 0.175 μg/ml).

Another data set is described as follows: Acute toxicity in mice. The format is in vivo. Conditions: mouse, in vivo.
In data set [3] the test system is thrombin time in the whole blood. The experiment in a line: In vivo trial, dog: dose required to prolong thrombin time in the whole blood 1.5 to 2.5 fold. The following applies: thrombin time in whole blood prolonged 1.5 to 2.5 fold.
From the text: as §1

A short description of data set [4]: Stability of peptide aldehyde salts/derivatives in aqueous solution and in solid form. The format is physicochemical.
In data set [5] the target is T1, U.S. Standard Human Thrombin. The experiment in a line: Antithrombin activity (thrombin time) in human plasma. The format is biochemical. More on the design: U.S. Standard Human Thrombin; purchased NIH, Bethesda, Md., USA. Conditions: for amount required for a twofold thrombin time increase relative to the tripeptide aldehyde sulfate: human plasma; for IC (2-fold thrombin time): pH 7.2, read-out: Amount of peptide required to increase thrombin time twofold immediately following dissolution of the peptide; for Relative activity: sulfate = 100. The procedure: In order to simulate physiological conditions the antithrombin activity of the tripeptide aldehyde salts as well as that of the carbamic acid derivatives was tested also on human plasma in the following system:
0.2 ml of human citrate plasma,
0.1 ml of tris(hydroxymethyl)-amino-methane hydrochloride--hydrochloric acid buffer solution (pH 7.2) containing the peptide solution, and
0.1 ml of U.S. Standard Human Thrombin (NIH, Bethesda Md., USA), 10 Units/ml solution.

The next data set has as its system thrombin. Conditions: known from Hungarian Pat. No. 169,870 / Belgian Pat. No. 880,844; cited from earlier work.
For a further data set, the system named is mice. The experiment in a line: Acute toxicity in mice. The data set is classed as in vivo. The following applies: acute toxicity.
In data set [6] the test system is thrombin time in the whole blood. The experiment in a line: In vivo trial of the tripeptide aldehyde derivatives, summary statements. More on the design: species or system rabbit, dog. Conditions: for oral dose at which therapeutic effect may be achieved: species not given.
From the text: as §1

A short description of data set [7]: Acute toxicity at intravenous infusion in the rabbit. Conditions: in vivo.
The next data set in a line: Solubility. The format is physicochemical.
For data set [8] the following is noted: cited from earlier work.
[9] abbreviates: ip, mice, i.p., read-out: LD50 i.p.
The mark [10] stands for this setting: iv, mice, i.v. bolus, read-out: LD50 i.v. bolus.
Setting [11] is: po, mice, p.o., read-out: LD50 p.o.

In the case of `CC(=O)O.N=C(N)NCCC[C@@H](C=O)NC(=O)[C@@H]1CCCN1C(=O)[C@H](N)Cc1ccccc1` [D-Phe-Pro-Arg-H.2 CH3 COOH, D-phenylalanyl-L-prolyl-L-arginine aldehyde acetate], the “Dose required for therapeutic effect, p.o., rabbit” value (“Dose required … p.o., rabbit” below) in data set [1] came to 100 mg/kg. In addition, the “activity starting to decrease (in words)” value in [2] (isotonic salt solution, 5° C.) was “already after several days”. For the same molecule, the LD50 in the data set “Acute toxicity in mice” (setting [9]) came to 38 mg/kg; in the data set “Acute toxicity in mice” (setting [10]) it was 9 mg/kg; in the data set “Acute toxicity in mice” (setting [11]), 960 mg/kg. For the same molecule, the “Dose required for therapeutic effect, p.o., dog” value (“Dose required … p.o., dog” below) in data set [3] is 100 mg/kg. Moreover, the “antithrombin potency upon standing in aqueous solution” value in data set [4] was “varying and rapidly decreasing”. For the same molecule, the “amount required for a twofold thrombin time increase relative to the tripeptide aldehyde sulfate” value in data set [5] was “manifold”. Moreover, the IC (2-fold thrombin time) in [5] was 0.065 to 0.14 µg/mL. Also, the thrombin inhibition entry with thrombin was “potent thrombin inhibitors”.

For the molecule `CC(=O)O.Cl.N=C(N)NCCC[C@@H](C=O)NC(=O)[C@@H]1CCCN1C(=O)[C@H](N)Cc1ccccc1` [D-Phe-Pro-Arg-H.2HCl, D-phenylalanyl-L-prolyl-L-arginine aldehyde acetate and hydrochloride], in data set [2] (isotonic salt solution, 5° C.), the “activity starting to decrease after” value was > 5 days. In addition, the “Dose required … p.o., dog” value in data set [3] is 100 mg/kg. Also, the “antithrombin potency upon standing in aqueous solution” value in [4] is “varying and rapidly decreasing”. In addition, in data set [5], the “amount required for a twofold thrombin time increase relative to the tripeptide aldehyde sulfate” value is “manifold” and the IC (2-fold thrombin time) fell in the range of 0.06 to 0.13 µg/mL.

As to `N=C(N)NCCC[C@@H](C=O)NC(=O)[C@@H]1CCCN1C(=O)[C@H](N)Cc1ccccc1.O=S(=O)(O)O` [D-Phe-Pro-Arg-H.H2 SO4, D-Phenylalanyl-L-prolyl-L-arginine aldehyde sulfate], the “Dose required for therapeutic effect, i.v. infusion, rabbit” value in data set [1] was determined as 1.0 mg/kg/h. Moreover, in data set [1], the “Dose required … p.o., rabbit” value is 25 mg/kg. In addition, the “Dose required for therapeutic effect, s.c., rabbit” value (from here on “Dose required … s.c., rabbit”) in [1] is reported as 6.0 mg/kg. Also, in data set [2] (isotonic salt solution, 5° C.), the “Relative activity after 0 days” value came to 100. In addition, the “retaining its antithrombin activity” value in data set [2] (isotonic salt solution, 5° C.) is recorded as ≥ 90 days. Further, in data set [2] (pH 7.2, read-out: final concentration inducing a fivefold relative thrombin time (activity set up as 100)), the IC (5-fold thrombin time) was 0.35 µM and 0.175 µg/mL. For the same molecule, in data set [2] (prolonged stability trials, aqueous medium), the “stable in aqueous medium” value is given as ≥ 180 days. The “failed to lose activity in solid form” value in data set [2] (solid form) is ≥ 6 months. Also, the “toxicity data compared with the acetate and the carbamic acid derivative” value in the data set on mice is “more favourable than those of either the acetate or the carbamic acid derivative”. Also, the LD50 in the data set “Acute toxicity in mice” (setting [9]) was 230 mg/kg; in “Acute toxicity in mice” (setting [10]) it was 45 mg/kg; in “Acute toxicity in mice” (setting [11]), > 2000 mg/kg; in the data set “Acute toxicity in mice” (po, oral administration, read-out: acute toxicity at oral administration), 2000 mg/kg; in the data set “Acute toxicity in mice” (sc, mice, s.c., read-out: LD50 s.c.), 1800 mg/kg; in [7], 58 mg/kg. The “Dose required for therapeutic effect, i.v. infusion, dog” value (“Dose required … i.v. infusion, dog” for short) in data set [3] is 0.5 mg/kg/h. Besides, the “Dose required … p.o., dog” value in [3] turned out to be 25 mg/kg. Moreover, in data set [3], the “Dose required for therapeutic effect, s.c., dog” value (shortened to “Dose required … s.c., dog”) amounted to 6.0 mg/kg. Also, in data set [5] (human citrate plasma), the Relative activity is 100. In addition, the IC (2-fold thrombin time) in [5] amounted to 0.02 µg/mL. For the same molecule, the “antithrombin potency in vivo” value in data set [6] (in vivo) is on record as “significant antithrombin potency in vivo”. Also, the “efficacy at intravenous and subcutaneous application” value in data set [6] (intravenous and subcutaneous, compared with heparin) is reported as “in the range of that of heparin”. Also, the “oral dose at which therapeutic effect may be achieved” value in data set [6] is 25 mg/kg.

For the molecule `N=C(NCCC[C@@H](C=O)NC(=O)[C@@H]1CCCN1C(=O)[C@H](N)Cc1ccccc1)NC(=O)O` [D-Phe-Pro-Arg/COOH/-H, D-phenylalanyl-L-prolyl-N^G -carboxy-L-arginine aldehyde], in data set [1], the “Dose required … p.o., rabbit” value worked out at 50 mg/kg and the “Dose required … s.c., rabbit” value was determined as 10.0 mg/kg. In addition, in data set [2] (isotonic salt solution, 5° C.), the “Relative activity after 0 days” value came to 100 and the “activity starting to decrease (in words)” value was “already after several days”. The solubility result in “Solubility” is “poor solubility”. Further, the LD50 in the data set “Acute toxicity in mice” (setting [11]) came to 1200 mg/kg. For the same molecule, in data set [3], the “Dose required … i.v. infusion, dog” value was 3.0 mg/kg/h; the “Dose required … p.o., dog” value stood at 50 mg/kg; the “Dose required … s.c., dog” value is 6.0 mg/kg. Moreover, the “potency after several days” value in [4] (aqueous buffer solution, after several days) was “significant reduction in potency”. The “activity after several months in solid form” value in [4] (solid form, after several months) is recorded as “loss of original activity even in solid form”. This molecule had a Relative activity in data set [5] (human citrate plasma) of 45. In data set [5], the “amount required for a twofold thrombin time increase relative to the tripeptide aldehyde sulfate” value is “twofold” and the IC (2-fold thrombin time) came to 0.042 µg/mL. Further, the thrombin inhibition result with thrombin was “potent thrombin inhibitors”. The “oral dose at which therapeutic effect may be achieved” value in data set [6] amounted to 50 mg/kg.

Take `N=C(N)NCCC[C@@H](C=O)NC(=O)[C@@H]1CCCN1C(=O)[C@H](N)Cc1ccccc1` [citrate]: the “activity starting to decrease (in words)” value in [2] (isotonic salt solution, 5° C.) is reported as “already after several days”.

Turning to `N=C(N)NCCC[C@@H](C=O)NC(=O)[C@@H]1CCCN1C(=O)[C@H](N)Cc1ccccc1` [tosylate], the “change of antithrombin activity compared with the acetate” value in data set [2] (isotonic salt solution, Table 1 footnote d) is given as “changing similarly to that of the acetate”.

In the case of Heparin, in data set [1], the “Dose required for therapeutic effect, i.v. infusion, rabbit” value stood at 0.6 mg/kg/h and the “Dose required … s.c., rabbit” value is reported as 5.0 mg/kg. Moreover, in data set [3], the “Dose required … i.v. infusion, dog” value turned out to be 0.5 mg/kg/h and the “Dose required … s.c., dog” value came out at 2.0 mg/kg. Besides, the “Amount of peptide required to increase thrombin time twofold immediately following dissolution of the peptide” value in [5] (human citrate plasma, pH 7.2, amount in the reaction mixture) amounted to 0.105 µg/mL. In [5] (human citrate plasma), this molecule displayed a Relative activity of 19. For the same molecule, the activity given orally entry in [8] (oral) is “practically inactive at oral application”. In addition, the “time until effect may be registered (in words)” value in data set [8] (primarily i.v. infusion) is “rapidly, within a short period of time”.
